Measured values published in US11752125B2, “Anti-neuroinflammatory and protective compounds in Achillea fragrantissima” (THE STATE OF ISRAEL MINISTRY OF AGRICULTURE & RURAL …, priority 2013, dated 2023).

What was measured:
IL-6 = IL-6 secretion from LPS-stimulated microglial cells (ELISA); type: cell-based, rat; details: LPS 100 ng/mL, 24 h
Procedure: 2. Plate microglial cells (3.5×10^4 cells/well) on a 24-well tissue culture plate, in DMEM containing 10% FBS, 2 mM glutamine, 100 U/ml penicillin and 100 micrograms/mL streptomycin;
Microglial cells were treated with different concentrations of TTF, followed by stimulation with LPS (100 ng/mL). After 24 h, conditioned media were collected and tested for cytokine levels by ELISA. Cell viability was determined using the crystal violet assay (FIG. 9C). Values represent the means±SEM (n=4 for each treatment).

MEK1 = test: SNP-induced MEK1 phosphorylation in N2a cells (ELISA); type: cell-based; details: concomitant treatment 40 min, total protein not affected
Procedure: N2a cells were treated concomitantly with SNP and TTF for 40 min. Cells were extracted and the levels of phosphorylated or total MEK1 were determined by specific ELISA kits. The results are shown in FIG. 20 are the mean±SEM of two different experiments […].

microglial cells [1] = test: Viability of LPS-activated microglial cells (MTT); type: cell-based, rat; details: MTT 20 hr later
Procedure: Microglial cells were activated with LPS in the presence or absence of different concentrations of 3,5,4′-trihydroxy-6,7,3′-trimethoxyflavone. Cell viability was determined (using MTT) 20 hr later.

ERK1/2 = test: SNP-induced ERK1/2 phosphorylation in N2a cells (ELISA); type: cell-based; details: concomitant treatment 40 min, total protein not affected
Procedure: N2a cells were treated concomitantly with SNP and TTF for 40 min. Cells were extracted and the levels of phosphorylated or total ERK1/2 were determined by specific ELISA kits. The results are shown in FIG. 19 and are the mean±SEM of one experiment (n=2).

MMP-9 = MMP-9 activity in LPS-activated microglial cells (gelatin zymography); type: cell-based, rat; details: LPS 4.5 ng/mL, 24 h
Excerpt: Determination of MMP Activities in Conditioned Media of Microglial Cells. MMP-9 activity was quantified by gelatin zymography.
1. Prepare a primary culture of microglial cells and plate cells as described in “Anti-neuroinflammatory effects of the extract of achillea fragrantissima” 2011. A. Elmann, S. Mordechay, H. Erlank, A. Telerman, M. Rindner, R. Ofir. BMC Complementary and Alternative Medicine. 11:98; 2. Treat cells with freshly diluted AcA of the invention; 3. Activate microglial cells with lipopolysaccharide (LPS, 4.5 nanograms/mL); 4. Measure the levels of MMP-9 by gel zymography as described in “Anti-neuroinflammatory effects of the extract of achillea fragrantissima” 2011. A. Elmann, S. Mordechay, H. Erlank, A. Telerman, M. Rindner, R. Ofir. BMC Complementary and Alternative Medicine. 11:98. 5. […]
Microglial cells were treated with the indicated concentrations of achillolide A, followed by stimulation with LPS (4.5 ng/mL). […] The levels of MMP-9 transcripts were measured by quantitative real-time PCR. The results from three technical replicates were normalized to β-actin and are expressed as relative quantity of MMP-9 transcripts in FIG. 23 B. The results are means±SD of one representative experiment out of three experiments. Cell viability was determined 24 h later by the crystal violet assay. […]

microglial cells [2] = test: Cytotoxicity in LPS-activated microglial cells (LDH); type: cell-based, rat; details: LPS 4.5 ng/mL, 20 h
Procedure: Cell viability was determined using a commercial colorimetric assay (Roche Applied Science, Germany) which measures Lactate Dehydrogenase (LDH) activity released from the cytosol of damaged cells into the incubation medium. The absorbance was measured at 492 nm in a plate reader. The percentage of cytotoxicity was calculated according to the following equation, where the LDH activity released from the untreated cells is the spontaneous LDH release, and the maximum releasable LDH in the cells is the:
In FIG. 21 A, microglial cells were treated with different concentrations of achillolide A, dexamethasone or memantine (as reference drugs) and were concomitantly activated by LPS (4.5 ng/mL) for 20 h. Cell conditioned supernatants were collected, and the levels of NO were measured using Griess reaction. Cytotoxicity was measured using the LDH method (FIG. 21B). Values represent the mean±SEM (n=12 for each treatment). ** p<0.01; ***p<0.001 relative to cells that were treated to LPS only.

microglial cells [3] = test: Viability of microglial cells in MMP-9 experiments (crystal violet); type: cell-based, rat; details: 24 h
Procedure: [formula] In MMP-9 experiments and in the cellular antioxidant activity (CAA) assays, cell viability was determined by a modification of the crystal violet assay. Microglial cells were treated with the indicated concentrations of achillolide A, followed by stimulation with LPS (4.5 ng/mL). Conditioned media were collected 24 h later and tested for MMP-9 activity by gel zymography as shown in FIG. 23 A. The zymogram represents two independent experiments. The levels of MMP-9 transcripts were measured by quantitative real-time PCR. The results from three technical replicates were normalized to β-actin and are expressed as relative quantity of MMP-9 transcripts in FIG. 23 B. The results are means±SD of one representative experiment out of three experiments. Cell viability was determined 24 h later by the crystal violet assay. Values represent the means±SEM (n=4 for each treatment).

glutamate = test: Glutamate secretion from LPS-activated microglial cells; type: cell-based, rat; details: LPS 100 ng/mL, 20 h
Procedure: For glutamate measurements, 3.5×10^4 cells/well were plated on a 24-well tissue culture plate. After 24 h of incubation in DMEM containing 10% FBS, cells were stimulated with LPS (100 ng/mL) and treated with different concentrations of achillolide A. Conditioned media were collected twenty hours later, and were tested for glutamate levels using a colorimetric enzymatic assay kit (glutamate assay kit, BioVision, CA, USA) according to the manufacturer's instructions. 7. Measure the levels of glutamate using a colorimetric enzymatic assay kit (glutamate assay kit, BioVision, CA, USA) according to the manufacturer's instructions. Microglial cells were treated with the indicated concentrations of achillolide A, followed by stimulation with LPS (100 ng/mL). After 20 h, conditioned media were collected and tested for glutamate levels by a commercial kit. Values represent the means±SEM (n=4 for each treatment). ** p<0.01; *** p<0.001, compared to LPS-stimulated cells.

Row | SMILES | effect on LPS-elicited IL-6 secretion (IL-6) | effect on SNP-induced phosphorylation of MEK1 (MEK1) | cytotoxicity to microglial cells (microglial cells [1]) | effect on SNP-induced phosphorylation of ERK1/2 (ERK1/2) | effect on LPS-induced MMP-9 activity (MMP-9) | cytotoxic effect in activated microglial cells (microglial cells [2]) | toxicity in MMP-9 experiments (microglial cells [3]) | inhibition of the LPS-induced levels of secreted glutamate (glutamate) [%]
1 | COc1cc(-c2oc3cc(OC)c(OC)c(O)c3c(=O)c2O)ccc1O [TTF, 3,5,4′-trihydroxy-6,7,3′-trimethoxyflavone] | markedly inhibited | significantly inhibited | not cytotoxic | significantly inhibited |  |  |  | 
2 | C=C1CCC2=C(CO)C(=O)O[C@H]2/C=C(\C)[C@H](OC(C)=O)CC1=O [achillolide A] |  |  |  |  | markedly inhibited | without a significant cytotoxic effect | no toxicity was observed | 80
